Experimental data: patent publication US4526989A, “1,4-Bis (substituted-amino)-5,8-dihydroxy-anthraquinones and leuco bases thereof” (priority 1979, dated 1985)
Several values for one entry are separate records, joined by “and”; a condition that tells them apart may be missing. Equal entries are not always repeated.

Assays:
[1] = test system: Ridgway Osteogenic Sarcoma; experiment: Ridgway Osteogenic Sarcoma; format: in vivo, AKD2 F1 /J mice; conditions: for % Inhibition Tumor Growth / % Showing 50% Tumor Regression / No. Without Tumors/No. Survivors / Tumor: 7 days after therapy stopped; for Median Survival / T/C: 63 days after therapy stopped
Procedure: The animals used are AKD2 F1 /J mice, all of the same sex, weighing a minimim of 17 g. and all within a three-gram weight range. There are normally 8 animals per test group. The tumor is administered subcutaneously by trocar as five 2-mm. fragments per mouse. The test compounds are administered intraperitoneally every 4 days for a total of 6 inoculations beginning on day 15 (relative to tumor inoculation) at various doses. The animals are weighed and survivors are recorded on a regular basis for 90 days. The regression of tumors is recorded in all test animals.

[2] = test system: lymphocytic leukemia P388; experiment: Lymphocytic leukemia P388 test (intraperitoneal administration); format: in vivo, DBA/2 mice
Procedure, shortened: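 DBA/2 mice, single sex, 5-6 per group, inoculated i.p. with 10^6 P388 leukemia cells. Compounds given i.p. at various doses on days 1, 5 and 9; survival followed 30 days, reporting median survival time and treated/control (T/C) survival ratio.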

[3] = test system: lymphocytic leukemia P388; experiment: Lymphocytic leukemia P388 test (oral drug administration); format: in vivo, DBA/2 mice; conditions: for T/C × 100: efficacy ≥125%
Procedure: The animals used are DBA/2 mice all of one sex, weighing a minimum of 17 g. and all within a 3 gram weight range. There are 5 or 6 animals per test group. The tumor transplant is by intraperitoneal injection of 0.1 ml. of dilute ascitic fluid containing 10^6 cells of lymphocytic leukemia P388. The test compounds are administered intraperitoneally on days one, 5 and 9 (relative to tumor inoculation) at various doses. The animals are weighed and survivors are recorded on a regular basis for 30 days. The median survival time and the ratio of survival time for treated (T)/control (C) animals are calculated. […] The results of this test with representative compounds of the present invention appear in Table I. The criterion for efficacy is T/C×100≥125%.
The procedure used is the same as for the previously described test for lymphocytic leukemia P388 except that the test compounds are administered orally at various doses rather than intraperitoneally. The criterion for efficacy is T/C×100≥125%.

melanotic melanoma B16 = experiment: Melanotic Melanoma B16 test; format: in vivo, C57BC/6 mice
Procedure, shortened: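 C57BC/6 mice (10 per group) were implanted i.p. with B16 melanoma homogenate, then dosed i.p. on days 1–9 at various doses.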

[4] = Mus musculus, P388, ip, read-out: T/C × 100
[5] = 60 mg./kg., administered intraperitoneally, positive control
[6] = 25 mg./kg. i.p., days 1, 5 and 9
[7] = 50 mg./kg. i.p., days 1, 5 and 9
[8] = 100 mg./kg. i.p., days 1, 5 and 9
[9] = Mus musculus, P388, ip, 25 mg./kg. i.p., days 1, 5 and 9, efficacy ≥125%, read-out: T/C × 100
[10] = Mus musculus, P388, ip, 50 mg./kg. i.p., days 1, 5 and 9, efficacy ≥125%, read-out: T/C × 100
[11] = Mus musculus, P388, ip, 100 mg./kg. i.p., days 1, 5 and 9, efficacy ≥125%, read-out: T/C × 100
[12] = 6 mg./kg. i.p., days 1 through 9
[13] = 25 mg./kg. i.p., days 1 through 9
[14] = Mus musculus, ip, 6 mg./kg. i.p., days 1 through 9, efficacy ≥125%, read-out: T/C × 100
[15] = Mus musculus, ip, 25 mg./kg. i.p., days 1 through 9, efficacy ≥125%, read-out: T/C × 100

With CN(Cc1cnc2nc(N)nc(N)c2n1)c1ccc(C(=O)N[C@@H](CCC(=O)O)C(=O)O)cc1 [Methotrexate] the “% Inhibition Tumor Growth” value ([1]; 6 mg./kg. i.p.) was 36%, the “% Showing 50% Tumor Regression” value ([1]; 6 mg./kg. i.p.) was 0% and the “No. Without Tumors/No. Survivors” value ([1]; 6 mg./kg. i.p.) was 0/4. The Tumor ([1]; 6 mg./kg. i.p.) was 758 (mm.) 2, the “Median Survival” value ([1]; 6 mg./kg. i.p.) was 46 days and the “% Inhibition Tumor Growth” value ([1]; 12 mg./kg. i.p.) was 23%. For the same compound, the “% Showing 50% Tumor Regression” value ([1]; 12 mg./kg. i.p.) was 0%, the “No. Without Tumors/No. Survivors” value ([1]; 12 mg./kg. i.p.) was 0/5 and the Tumor ([1]; 12 mg./kg. i.p.) was 916 (mm.) 2. For the same compound, the “Median Survival” value ([1]; 12 mg./kg. i.p.) was 49 days, the “% Inhibition Tumor Growth” value ([1]; 25 mg./kg. i.p.) was 54% and the “% Showing 50% Tumor Regression” value ([1]; 25 mg./kg. i.p.) was 12%. For the same compound, the “No. Without Tumors/No. Survivors” value ([1]; 25 mg./kg. i.p.) was 1/6, the Tumor ([1]; 25 mg./kg. i.p.) was 546 (mm.) 2 and the “Median Survival” value ([1]; 25 mg./kg. i.p.) was 52.5 days. For the same compound, the T/C ([1]; 25 mg./kg. i.p.) was 118%.

With O=c1[nH]cc(F)c(=O)[nH]1 [5-Fluorouracil, reference compound] the response vs control in vivo at 40 mg/kg ([2]; Mus musculus, P388, ip, 40 mg./kg. injection, positive control, efficacy ≥125%, read-out: T/C × 100) was 164% and 155%, the response vs control in vivo at 60 mg/kg [2, 4] was 200% and the “Median Survival Time” value [3, 5] was 19.0 days and 20.0 days. The “T/C × 100” value [3, 5] was 190% and 174% and the response vs control in vivo at 60 mg/kg (melanotic melanoma B16; Mus musculus, ip, 60 mg./kg. injection, positive control, efficacy ≥125%, read-out: T/C × 100) was 128%.

In the case of CC[C@]1(O)C[C@H]2CN(CCc3c([nH]c4ccccc34)[C@@](C(=O)OC)(c3cc4c(cc3OC)N(C=O)[C@H]3[C@@](O)(C(=O)OC)[C@H](OC(C)=O)[C@]5(CC)C=CCN6CC[C@]43[C@@H]65)C2)C1 [Vincristine], the “% Inhibition Tumor Growth” value ([1]; 0.5 mg./kg. i.p.) is reported as 93%, the “% Showing 50% Tumor Regression” value ([1]; 0.5 mg./kg. i.p.) is reported as 57% and the “No. Without Tumors/No. Survivors” value ([1]; 0.5 mg./kg. i.p.) is reported as 4/7. For the same compound, the Tumor ([1]; 0.5 mg./kg. i.p.) was 77 (mm.) 2, the “Median Survival” value ([1]; 0.5 mg./kg. i.p.) was 83 days and the T/C ([1]; 0.5 mg./kg. i.p.) was 186%. For the same compound, the “% Inhibition Tumor Growth” value ([1]; 1.0 mg./kg. i.p.) was 100%, the “% Showing 50% Tumor Regression” value ([1]; 1.0 mg./kg. i.p.) was 100% and the “No. Without Tumors/No. Survivors” value ([1]; 1.0 mg./kg. i.p.) was 6/6. For the same compound, the Tumor ([1]; 1.0 mg./kg. i.p.) was 0 (mm.) 2, the “Median Survival” value ([1]; 1.0 mg./kg. i.p.) was 85 days and the T/C ([1]; 1.0 mg./kg. i.p.) was 191%. The “% Inhibition Tumor Growth” value ([1]; 1.5 mg./kg. i.p.) was 100%, the “% Showing 50% Tumor Regression” value ([1]; 1.5 mg./kg. i.p.) was 100% and the “No. Without Tumors/No. Survivors” value ([1]; 1.5 mg./kg. i.p.) was 4/4. The Tumor ([1]; 1.5 mg./kg. i.p.) was 0 (mm.) 2, the “Median Survival” value ([1]; 1.5 mg./kg. i.p.) was 68 days and the T/C ([1]; 1.5 mg./kg. i.p.) was 153%.

CN(C)CCNC1=C2C(=O)c3c(O)ccc(O)c3C(=O)C2=C(NCCN(C)C)CC1 [Leuco-1,4-bis[(2-dimethylaminoethyl)amino]-5,8-dihydroxy-anthraquinone] was tested, and the “Median Survival Time” value ([2]; 1.5 mg./kg. i.p., days 1, 5 and 9) was 13.0 days, the “Median Survival Time” value ([2]; 3 mg./kg. i.p., days 1, 5 and 9) was 14.5 days and the “Median Survival Time” value ([2]; 6 mg./kg. i.p., days 1, 5 and 9) was 16.0 days. The “Median Survival Time” value ([2]; 12 mg./kg. i.p., days 1, 5 and 9) was 17.5 days, the “Median Survival Time” value [2, 6] was 19.0 days and the “Median Survival Time” value [2, 7] was 24.5 days. For the same compound, the “Median Survival Time” value [2, 8] was 24.5 days, the response vs control in vivo at 1.5 mg/kg ([2]; Mus musculus, P388, ip, 1.5 mg./kg. i.p., days 1, 5 and 9, efficacy ≥125%, read-out: T/C × 100) was 130% and the response vs control in vivo at 3 mg/kg ([2]; Mus musculus, P388, ip, 3 mg./kg. i.p., days 1, 5 and 9, efficacy ≥125%, read-out: T/C × 100) was 145%. It also gave a response vs control in vivo at 6 mg/kg ([2]; Mus musculus, P388, ip, 6 mg./kg. i.p., days 1, 5 and 9, efficacy ≥125%, read-out: T/C × 100) of 160%, a response vs control in vivo at 12 mg/kg ([2]; Mus musculus, P388, ip, 12 mg./kg. i.p., days 1, 5 and 9, efficacy ≥125%, read-out: T/C × 100) of 175% and a response vs control in vivo at 25 mg/kg [2, 9] of 190%. The response vs control in vivo at 50 mg/kg [2, 10] was 245%, the response vs control in vivo at 100 mg/kg [2, 11] was 245% and the “Median Survival Time” value ([3]; 12 mg./kg. oral) was 12.5 days. The “T/C × 100” value ([3]; 12 mg./kg. oral) was 125%, the “Median Survival Time” value ([3]; 25 mg./kg. oral) was 13.5 days and the “T/C × 100” value ([3]; 25 mg./kg. oral) was 135%. For the same compound, the “Median Survival Time” value ([3]; 50 mg./kg. oral) was 16.0 days, the “T/C × 100” value ([3]; 50 mg./kg. oral) was 160% and the “Median Survival Time” value (melanotic melanoma B16; 3 mg./kg. i.p., days 1 through 9) was 21.0 days. For the same compound, the “Median Survival Time” value (melanotic melanoma B16; [12]) was 21.5 days, the “Median Survival Time” value (melanotic melanoma B16; 12 mg./kg. i.p., days 1 through 9) was 23.0 days and the “Median Survival Time” value (melanotic melanoma B16; [13]) was 25.0 days. For the same compound, the response vs control in vivo at 3 mg/kg (melanotic melanoma B16; Mus musculus, ip, 3 mg./kg. i.p., days 1 through 9, efficacy ≥125%, read-out: T/C × 100) was 127%, the response vs control in vivo at 6 mg/kg (melanotic melanoma B16; [14]) was 130% and the response vs control in vivo at 12 mg/kg (melanotic melanoma B16; Mus musculus, ip, 12 mg./kg. i.p., days 1 through 9, efficacy ≥125%, read-out: T/C × 100) was 139%. It also gave a response vs control in vivo at 25 mg/kg (melanotic melanoma B16; [15]) of 151%.

CC(CNC1=C2C(=O)c3c(O)ccc(O)c3C(=O)C2=C(NCC(C)N(C)C)CC1)N(C)C (stereo not drawn) [Leuco-1,4-bis[2-dimethylaminopropylamino]-5,8-dihydroxyanthraquinone] was tested, and the “Median Survival Time” value ([2]; 12.5 mg./kg. i.p., days 1, 5 and 9) was 11.0 days, the “Median Survival Time” value [2, 6] was 13.0 days and the “Median Survival Time” value [2, 7] was 14.0 days. For the same compound, the “Median Survival Time” value [2, 8] was 15.0 days, the “Median Survival Time” value ([2]; 200 mg./kg. i.p., days 1, 5 and 9) was 18.0 days and the response vs control in vivo at 200 mg/kg [2, 4] was 200%. It also gave a response vs control in vivo at 12.5 mg/kg ([2]; Mus musculus, P388, ip, 12.5 mg./kg. i.p., days 1, 5 and 9, efficacy ≥125%, read-out: T/C × 100) of 122%, a response vs control in vivo at 25 mg/kg [2, 9] of 144% and a response vs control in vivo at 50 mg/kg [2, 10] of 156%. The response vs control in vivo at 100 mg/kg [2, 11] was 167%, the “Median Survival Time” value (melanotic melanoma B16; [12]) was 19.5 days and the “Median Survival Time” value (melanotic melanoma B16; 12.5 mg./kg. i.p., days 1 through 9) was 20.5 days. The “Median Survival Time” value (melanotic melanoma B16; [13]) was 24.5 days, the “Median Survival Time” value (melanotic melanoma B16; 50 mg./kg. i.p., days 1 through 9) was 28.5 days and the “Median Survival Time” value (melanotic melanoma B16; 100 mg./kg. i.p., days 1 through 9) was 21.0 days. The response vs control in vivo at 6 mg/kg (melanotic melanoma B16; [14]) was 115%, the response vs control in vivo at 12.5 mg/kg (melanotic melanoma B16; Mus musculus, ip, 12.5 mg./kg. i.p., days 1 through 9, efficacy ≥125%, read-out: T/C × 100) was 121% and the response vs control in vivo at 25 mg/kg (melanotic melanoma B16; [15]) was 144%. It also gave a response vs control in vivo at 50 mg/kg (melanotic melanoma B16; Mus musculus, ip, 50 mg./kg. i.p., days 1 through 9, efficacy ≥125%, read-out: T/C × 100) of 168% and a response vs control in vivo at 100 mg/kg (melanotic melanoma B16; Mus musculus, ip, 100 mg./kg. i.p., days 1 through 9, efficacy ≥125%, read-out: T/C × 100) of 124%.
